Source: patent US4161522A, “Method for blocking allergic responses” (The Regents of the University of California, priority 1978, dated 1979)
Ends that are not written are not given here. Peptide text beside a SMILES is read from it. * marks the point of attachment. Octanoyl = CCCCCCCC(=O)*

Tests used:
[1] = test system: DBA white mice; assay: Acute toxicity in mice; assay type: in vivo; conditions: for survival 24 to 72 hours post-injection: 1.4 ml total i.d./s.c./i.v./i.p.
Procedure: Acute toxicity was determined as follows:
DBA white mice (average weight 15 g.) were each injected with 1.4 ml. of a solution of the peptide in phosphate buffered saline, pH 7.4, as follows:
0.1 ml. × 3 intradermally
0.1 ml. × 3 subcutaneously
0.6 ml. intraperitoneally
The peptides and concentrations used were as follows: […]

[2] = test system: Wil-2WT human lymphoblastoid tissue culture cell line; assay: Blocking of binding of I125-tagged IgE to Wil-2WT cells in vitro
Procedure: In this regard, the 8 carbon chain acyl substituted peptide, octanoyl-Asp-Ser-Asp-Pro-Arg, as well as the […] acyl substituted peptide, acetoyl-Asp-Ser-Asp-Pro-Arg, were prepared by the method outlined in Example 10 above. These peptides were tested, in vitro, for their blocking ability with respect to the Wil-2WT human lymphoblastoid tissue culture cell line as follows.
Wil-2WT cells in culture medium were centrifuged at about 2000 RPM. The separated cells were mixed with minimal essential medium (MEM) and recentrifuged at 2000 RPM. The supernatent was decanted off completely and the residual cells were suspended in MEM+3% human serum albumin (HSA). The cell suspension was divided into suitable aliquots in reaction tubes. Blanks and control reaction tubes were also prepared. To various of the cell suspension tubes, were added known amount of Sha Myeloma E; Sha Myeloma E and octanoyl-Asp-Ser-Asp-Pro-Arg; or Sha Myeloma E and acetoyl-Asp-Ser-Asp-Pro-Arg. After mixing and standing at room temperature for approximately one hour, a known quantity of deaggregated IgE, tagged with radioactive iodine (I^125) was added to the tubes. After standing a short time, the capped tubes were mixed by slow inversion over an hour's time. […] The suspension was then counted on a gamma counter in order to determine the amount of tagged IgE bound to the Wil-2WT cells.

[3] = test system: Prausnitz-Kustner (P-K) reaction; assay: Prausnitz-Kustner (P-K) reaction blocking assay in human volunteers; assay type: in vivo; conditions: peptide approx. 6 μg/ml
Procedure: The "blocking" activity of the polypeptides of the invention can be assayed by utilization of the classic Prausnitz-Kustner (P-K) reaction. In this classic method, a known allergic serum i.e., one that contains IgE specific for a known antigen or allergen is injected intradermally into a human volunteer. After waiting a period of time, e.g. 20 or more hours, the injected sites are then challenged with a prick or injection of a solution of an antigen that is specific for the IgE in the injected serum. Within the next 10 to 30 minutes a positive reaction is evidenced by the development of a wheal (and flare) at the injected site. The more extensive the diameter of the wheal the more intensive is the allergic reaction. That is, a more extensive wheal indicates a greater release of histamine into the tissues at the injected site. Conversely, the development of wheals of lesser diameter or the absence of any wheal at all indicates diminished allergic reaction and/or no allergic reaction at all. The P-K reaction as noted above is a classic test and is universally known and utilized by allergists.
All of these assays were performed using a single proven safe P-K donor serum that contains IgE specific for guinea pig allergens.
Peptide solutions were either injected intradermally 1 to 24 hours prior to the P-K serum, or mixed with dilutions of the P-K serum for simultaneous injection. Initial tests were performed using the P-K serum at from 1:4 to 1:200 dilutions. Further studies were run at a fixed P-K dilution of 1:32 while the invention peptide solutions were varied to contain from about 1 mM to […] of the peptide being tested. Injected sites on the volunteers were challenged by prick-puncture of guinea pig BCA 1:40 w/v (purchased from Berkeley Biologicals, Inc.).
Human volunteers were chosen who had serum IgE levels below 100 U/ml. (242 ng/ml.) which levels have been previously shown to assure successful P-K reactivity. […] P-K and skin tests were performed on the back and/or forearm. […]

[4] = test system: wheal and flare reaction; assay: Displacement of IgE: direct skin challenge in an individual sensitive to guinea pig antigens; assay type: in vivo, human; conditions: single sensitive individual
Procedure: It has also been determined that the active polypeptides of the invention appear to have the ability to "displace" IgE from mast cells as well as to prevent the binding of the IgE to the receptors. In a single test, an individual known to have extreme sensitivity to guinea pig antigens, that is a person with a high natural concentration of guinea-pig-antigen-sensitive IgE, was injected with polypeptides in accordance with the invention, and […] reaction to guinea pig antigen was noted.
Specifically, approximately 2 nM each of Asp-Ser-Asp-Pro-Arg and Ala-Asp-Ser-Asp-Pro-Arg were each intradermally injected into 3 marked sites. For comparison, TASME, as well as a control of the buffer diluent alone, was also each injected into 3 marked sites. At one, five and twenty-four hours subsequent to the polypeptide and control injection, one of each peptide and one diluent site were prick-puncture challenged with guinea pig antigen. […] However, at the twenty-four hour challenge, the wheal at the Asp-Ser-Asp-Pro-Arg site was approximately 45% smaller; while at the Ala-Asp-Ser-Asp-Pro-Arg site, the wheal was approximately 23% smaller.

C[C@H](N)C(=O)N[C@@H](CC(=O)O)C(=O)N[C@@H](CO)C(=O)N[C@@H](CC(=O)O)C(=O)N1CCC[C@H]1C(=O)N[C@@H](CCCNC(=N)N)C(=O)O [Ala-Asp-Ser-Asp-Pro-Arg] (H-ADSDPR-OH)
survival 24 to 72 hours post-injection ([1]; 5 μg/ml (375 mg/kg), 6 mice): all still living | post-mortem gross and microscopic examination of tissues and organs ([1]; 5 μg/ml (375 mg/kg), 6 mice): no local or systemic toxico-logical abnormalities

N=C(N)NCCC[C@H](NC(=O)[C@@H]1CCCN1C(=O)[C@H](CC(=O)O)NC(=O)[C@H](CO)NC(=O)[C@@H](N)CC(=O)O)C(=O)O [Asp-Ser-Asp-Pro-Arg] (H-DSDPR-OH)
survival 24 to 72 hours post-injection ([1]; 10 μg/ml (1 mg/kg), 8 mice): all still living | post-mortem gross and microscopic examination of tissues and organs ([1]; 10 μg/ml (1 mg/kg), 8 mice): no local or systemic toxico-logical abnormalities | survival 24 to 72 hours post-injection ([1]; 13 μg/ml (1.3 mg/kg), 8 mice): all still living | post-mortem gross and microscopic examination of tissues and organs ([1]; 13 μg/ml (1.3 mg/kg), 8 mice): no local or systemic toxico-logical abnormalities

CCCCCCCC(=O)N[C@@H](CC(=O)O)C(=O)N[C@@H](CO)C(=O)N[C@@H](CC(=O)O)C(=O)N1CCC[C@H]1C(=O)N[C@@H](CCCNC(=N)N)C(=O)O [octanoyl-Asp-Ser-Asp-Pro-Arg] (Octanoyl-DSDPR-OH)
blocking of the binding of IgE to Wil-2WT cells, highest seen ([2]; as high as, in several procedures): ≤ 25%

acetoyl-Asp-Ser-Asp-Pro-Arg (Ac-DSDPR)
blocking ability on Wil-2WT cells (in words) [2]: did not exhibit any blocking ability whatsoever

tosyl-L-arginine sarcosine methylester [TASME]
inhibition, individual high ([3]; highest of six individuals, 0.1 ml per site): 40% | inhibition, individual low ([3]; lowest of six individuals, 0.1 ml per site): 0% | average % inhibition (P-K wheal) ([3]; six individuals, 0.1 ml intradermally, 0.05 ml diluted P-K serum containing 0.2 ng IgE, versus control wheal): 24% | inhibition of the wheal and flare reaction ([4]; challenge at one and five hours after intradermal injection of approx. 2 nM): No inhibition | wheal smaller than at buffered saline diluent site ([4]; challenge at twenty-four hours after intradermal injection of approx. 2 nM): No reduction
